Measured values taken from patent US12714706B2, “Methods of treating small cell lung cancer with lurbinectedin formulations” (PHARMA MAR, S.A., priority 2019, dated 2026).

Test: Analytical results and impurity profile of batches of Form A and Form B of lurbinectedin
Format: physicochemical
Design: Impurity RRT approx. 1.10-1.11 / Impurity RRT approx. 1.12 / Impurity RRT approx. 1.27-1.34 / Impurity RRT approx. 1.29-1.30 / Impurity RRT approx. 1.30-1.32 / Impurity RRT approx. 1.28-1.37 / Impurity RRT approx. 2.37 / Impurity RRT approx. 2.41-2.52 / Impurity RRT approx. 2.85 / Impurity RRT approx. 0.66-0.69 / Impurity RRT approx. 0.72-0.76: unit not given here
Settings: for Impurity RRT aprox 0.66-0.69 / Impurity RRT aprox 0.72-0.76 / Impurity RRT aprox 1.10-1.11: batches of Form B
Excerpt: Several batches of Form A of lurbinectedin were manufactured by this method.
Several batches of Form B of lurbinectedin were manufactured by this method.

[1] = impurity profile, batches of Form A
[2] = batches of Form B of lurbinectedin
[3] = batches of Form A of lurbinectedin

Row | SMILES | Impurity RRT approx. 0.72-0.76 [1] | Impurity RRT approx. 1.10-1.11 [1] | Impurity RRT approx. 1.29-1.30 [1] | Impurity RRT approx. 1.30-1.32 [1] | Residual Solvents Acetonitrile [2] | Residual Solvents CH2Cl2 [2] | Residual Solvents Methanol [2] | Residual Solvents Pentane [2] | Residual Solvents Total [2] | Total Impurities [2] | Water Content [2] | Impurity RRT aprox 0.72-0.76 (impurity profile) | other results
1 | COc1ccc2[nH]c3c(c2c1)CCN[C@]31CS[C@@H]2c3c(OC(C)=O)c(C)c4c(c3[C@H](COC1=O)N1[C@@H]2[C@H]2c3c(cc(C)c(OC)c3O)C[C@@H]([C@@H]1O)N2C)OCO4 [Batch M01] | 0.10 | 0.08 | 0.10 | 0.18 | – | – | – | – | – | – | – | – | –
2 | COc1ccc2[nH]c3c(c2c1)CCN[C@]31CS[C@@H]2c3c(OC(C)=O)c(C)c4c(c3[C@H](COC1=O)N1[C@@H]2[C@H]2c3c(cc(C)c(OC)c3O)C[C@@H]([C@@H]1O)N2C)OCO4 [Batch G01] | 0.11 | 0.50 | – | 0.13 | – | – | – | – | – | – | – | – | Impurity RRT approx. 0.66-0.69 [1]: 0.06
3 | COc1ccc2[nH]c3c(c2c1)CCN[C@]31CS[C@@H]2c3c(OC(C)=O)c(C)c4c(c3[C@H](COC1=O)N1[C@@H]2[C@H]2c3c(cc(C)c(OC)c3O)C[C@@H]([C@@H]1O)N2C)OCO4 [Batch R03] | – | – | – | – | <LOQ | <LOQ | <LOQ | <LOQ | 0.0 % w/w | 0.3 % Area | 1.7 % w/w | 0.22 % area | Impurity RRT aprox 0.66-0.69 (impurity profile): 0.05 % area
4 | COc1ccc2[nH]c3c(c2c1)CCN[C@]31CS[C@@H]2c3c(OC(C)=O)c(C)c4c(c3[C@H](COC1=O)N1[C@@H]2[C@H]2c3c(cc(C)c(OC)c3O)C[C@@H]([C@@H]1O)N2C)OCO4 [Batch 1799069] | – | – | – | – | <LOQ | <LOQ | <LOQ | <LOQ | 0.0 % w/w | 0.4 % Area | 2.0 % w/w | 0.31 % area | Impurity RRT aprox 1.10-1.11 (impurity profile): 0.06 % area
5 | COc1ccc2[nH]c3c(c2c1)CCN[C@]31CS[C@@H]2c3c(OC(C)=O)c(C)c4c(c3[C@H](COC1=O)N1[C@@H]2[C@H]2c3c(cc(C)c(OC)c3O)C[C@@H]([C@@H]1O)N2C)OCO4 [Batch 1711182-2] | – | – | – | – | <LOQ | <LOQ | <LOQ | <LOQ | 0.0 % w/w | 0.3 % Area | 2.4 % w/w | 0.34 % area | –
6 | COc1ccc2[nH]c3c(c2c1)CCN[C@]31CS[C@@H]2c3c(OC(C)=O)c(C)c4c(c3[C@H](COC1=O)N1[C@@H]2[C@H]2c3c(cc(C)c(OC)c3O)C[C@@H]([C@@H]1O)N2C)OCO4 [Batch P02] | – | 0.09 | 0.06 | 0.13 | – | – | – | – | – | – | – | – | Impurities Total [3]: 0.4 % Area; Residual Solvents Acetonitrile [3]: <LOQ; Residual Solvents Dichloro-methane [3]: <LOQ; Residual Solvents Ethyl acetate [3]: <LOQ; Residual Solvents Hexane [3]: 0.01 % w/w; Residual Solvents Methanol [3]: 1.7 % w/w; Residual Solvents Pentane [3]: 0.2 % w/w; Residual Solvents Total [3]: 1.9 % w/w; Water Content [3]: 1.2 % w/w
7 | COc1ccc2[nH]c3c(c2c1)CCN[C@]31CS[C@@H]2c3c(OC(C)=O)c(C)c4c(c3[C@H](COC1=O)N1[C@@H]2[C@H]2c3c(cc(C)c(OC)c3O)C[C@@H]([C@@H]1O)N2C)OCO4 [Batch R04] | – | – | – | – | <LOQ | <LOQ | <LOQ | <LOQ | 0.0 % w/w | 0.4 % Area | 2.6 % w/w | 0.26 % area | Impurity RRT aprox 0.66-0.69 (impurity profile): 0.05 % area; Impurity RRT aprox 1.10-1.11 (impurity profile): 0.07 % area
8 | COc1ccc2[nH]c3c(c2c1)CCN[C@]31CS[C@@H]2c3c(OC(C)=O)c(C)c4c(c3[C@H](COC1=O)N1[C@@H]2[C@H]2c3c(cc(C)c(OC)c3O)C[C@@H]([C@@H]1O)N2C)OCO4 [Batch P01] | – | 0.15 | 0.09 | – | – | – | – | – | – | – | – | – | Impurities Total [3]: 0.3 % Area; Residual Solvents Acetonitrile [3]: 0.01 % w/w; Residual Solvents Dichloro-methane [3]: <LOQ; Residual Solvents Ethyl acetate [3]: <LOQ; Residual Solvents Hexane [3]: <LOQ; Residual Solvents Methanol [3]: 1.1 % w/w; Residual Solvents Pentane [3]: 0.2 % w/w; Residual Solvents Total [3]: 1.4 % w/w; Water Content [3]: 0.9 % w/w
9 | COc1ccc2[nH]c3c(c2c1)CCN[C@]31CS[C@@H]2c3c(OC(C)=O)c(C)c4c(c3[C@H](COC1=O)N1[C@@H]2[C@H]2c3c(cc(C)c(OC)c3O)C[C@@H]([C@@H]1O)N2C)OCO4 [Batch K04] | – | 0.20 | 0.11 | 0.08 | – | – | – | – | – | – | – | – | –
10 | COc1ccc2[nH]c3c(c2c1)CCN[C@]31CS[C@@H]2c3c(OC(C)=O)c(C)c4c(c3[C@H](COC1=O)N1[C@@H]2[C@H]2c3c(cc(C)c(OC)c3O)C[C@@H]([C@@H]1O)N2C)OCO4 [Batch K02] | 0.09 | 0.13 | 0.07 | 0.19 | – | – | – | – | – | – | – | – | –
11 | COc1ccc2[nH]c3c(c2c1)CCN[C@]31CS[C@@H]2c3c(OC(C)=O)c(C)c4c(c3[C@H](COC1=O)N1[C@@H]2[C@H]2c3c(cc(C)c(OC)c3O)C[C@@H]([C@@H]1O)N2C)OCO4 [Batch F02] | 0.06 | 0.17 | – | 0.09 | – | – | – | – | – | – | – | – | Impurity RRT approx. 0.66-0.69 [1]: 0.19; Impurity RRT approx. 1.27-1.34 [1]: 0.12; Impurity RRT approx. 2.41-2.52 [1]: 0.07; Impurity RRT approx. 2.85 [1]: 0.07
12 | COc1ccc2[nH]c3c(c2c1)CCN[C@]31CS[C@@H]2c3c(OC(C)=O)c(C)c4c(c3[C@H](COC1=O)N1[C@@H]2[C@H]2c3c(cc(C)c(OC)c3O)C[C@@H]([C@@H]1O)N2C)OCO4 [Batch R01] | – | – | – | – | <LOQ | <LOQ | <LOQ | <LOQ | 0.0 % w/w | 0.3 % Area | 1.9 % w/w | 0.22 % area | Residual Solvents AcOEt [2]: <LOQ; Residual Solvents Hexane [2]: <LOQ; Impurity RRT aprox 1.10-1.11 (impurity profile): 0.09 % area
13 | COc1ccc2[nH]c3c(c2c1)CCN[C@]31CS[C@@H]2c3c(OC(C)=O)c(C)c4c(c3[C@H](COC1=O)N1[C@@H]2[C@H]2c3c(cc(C)c(OC)c3O)C[C@@H]([C@@H]1O)N2C)OCO4 [Batch K03] | 0.07 | 0.17 | 0.37 | 0.08 | – | – | – | – | – | – | – | – | –
14 | COc1ccc2[nH]c3c(c2c1)CCN[C@]31CS[C@@H]2c3c(OC(C)=O)c(C)c4c(c3[C@H](COC1=O)N1[C@@H]2[C@H]2c3c(cc(C)c(OC)c3O)C[C@@H]([C@@H]1O)N2C)OCO4 [Batch P03] | – | – | 0.09 | – | – | – | – | – | – | – | – | – | Impurities Total [3]: 0.3 % Area; Residual Solvents Acetonitrile [3]: <LOQ; Residual Solvents Dichloro-methane [3]: 0.01 % w/w; Residual Solvents Ethyl acetate [3]: <LOQ; Residual Solvents Hexane [3]: <LOQ; Residual Solvents Methanol [3]: 1.6 % w/w; Residual Solvents Pentane [3]: 0.3 % w/w; Residual Solvents Total [3]: 1.9 % w/w; Water Content [3]: 1.6 % w/w; Impurity RRT approx. 1.12 [1]: 0.07
15 | COc1ccc2[nH]c3c(c2c1)CCN[C@]31CS[C@@H]2c3c(OC(C)=O)c(C)c4c(c3[C@H](COC1=O)N1[C@@H]2[C@H]2c3c(cc(C)c(OC)c3O)C[C@@H]([C@@H]1O)N2C)OCO4 [Batch M02] | 0.08 | 0.10 | 0.17 | 0.08 | – | – | – | – | – | – | – | – | Impurity RRT approx. 1.28-1.37 [1]: 0.08
16 | COc1ccc2[nH]c3c(c2c1)CCN[C@]31CS[C@@H]2c3c(OC(C)=O)c(C)c4c(c3[C@H](COC1=O)N1[C@@H]2[C@H]2c3c(cc(C)c(OC)c3O)C[C@@H]([C@@H]1O)N2C)OCO4 [Batch 1711189-2] | – | – | – | – | <LOQ | <LOQ | <LOQ | <LOQ | 0.0 % w/w | 0.3 % Area | 2.5 % w/w | 0.30 % area | Impurity RRT aprox 0.66-0.69 (impurity profile): 0.05 % area
17 | COc1ccc2[nH]c3c(c2c1)CCN[C@]31CS[C@@H]2c3c(OC(C)=O)c(C)c4c(c3[C@H](COC1=O)N1[C@@H]2[C@H]2c3c(cc(C)c(OC)c3O)C[C@@H]([C@@H]1O)N2C)OCO4 [Batch P05] | – | – | – | – | <LOQ | <LOQ | <LOQ | <LOQ | 0.0 % w/w | 0.3 % Area | 2.1 % w/w | 0.24 % area | Residual Solvents AcOEt [2]: <LOQ; Residual Solvents Hexane [2]: <LOQ; Impurity RRT aprox 1.10-1.11 (impurity profile): 0.07 % area
18 | COc1ccc2[nH]c3c(c2c1)CCN[C@]31CS[C@@H]2c3c(OC(C)=O)c(C)c4c(c3[C@H](COC1=O)N1[C@@H]2[C@H]2c3c(cc(C)c(OC)c3O)C[C@@H]([C@@H]1O)N2C)OCO4 [Batch R02] | – | – | – | – | <LOQ | <LOQ | – | <LOQ | 0.0 % w/w | 0.3 % Area | 2.0 % w/w | 0.28 % area | –
19 | COc1ccc2[nH]c3c(c2c1)CCN[C@]31CS[C@@H]2c3c(OC(C)=O)c(C)c4c(c3[C@H](COC1=O)N1[C@@H]2[C@H]2c3c(cc(C)c(OC)c3O)C[C@@H]([C@@H]1O)N2C)OCO4 [Batch M03] | 0.12 | 0.11 | 0.10 | 0.11 | – | – | – | – | – | – | – | – | –
